The numbers were not newly measured in PMC11843658 (Journal of Enzyme Inhibition and Medicinal Chemistry, 2025), which cites them from elsewhere.

The data set deals with Kasumi-1 xenograft. Details: method as in PMID 32551003. The settings on record: Kasumi-1 xenograft model of acute myeloid leukaemia; cited from earlier work.

For `CC/C(=C\c1ccccc1)[C@@H]1C[C@H]1NC1CC2(C1)CN(CCO)C2` [Compound 5], the “anticancer effects in xenograft model” value is on record as “potent anticancer effects”.
